Results from US8017611B2, “Pyridine and pyrazine derivatives -083” (AstraZeneca AB, priority 2007, dated 2011).
Marks after values point to notes of the source that are not given here.

Target: T1, recombinant Axl tyrosine kinase (Homo sapiens, UniProt P30530)
T1 construct: encompassing amino acids 473 to 894 of Axl; GST (N); made in house; host or cells: SF126 insect cells
T1 sequence (P30530 473-894): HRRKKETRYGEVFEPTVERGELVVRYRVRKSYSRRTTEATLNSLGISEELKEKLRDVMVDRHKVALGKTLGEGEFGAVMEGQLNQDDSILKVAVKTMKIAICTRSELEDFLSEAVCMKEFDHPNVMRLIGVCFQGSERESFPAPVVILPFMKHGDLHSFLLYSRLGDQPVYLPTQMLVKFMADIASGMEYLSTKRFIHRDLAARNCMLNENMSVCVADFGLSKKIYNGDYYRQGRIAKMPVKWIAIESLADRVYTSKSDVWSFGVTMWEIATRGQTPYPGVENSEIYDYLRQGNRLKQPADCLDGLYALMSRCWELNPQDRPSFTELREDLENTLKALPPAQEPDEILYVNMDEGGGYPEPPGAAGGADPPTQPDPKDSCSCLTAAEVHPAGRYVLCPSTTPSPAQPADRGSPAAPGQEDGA
Experiment: In vitro Axl kinase assay (AlphaScreen), Test (a)
Format: biochemical
Conditions: Test (a); read-out: IC50 versus Axl tyrosine kinase

Compound | IC50 [nM]
COCc1nn(C2CCNCC2)cc1-c1cnc(N)c(-c2nc3cccc(OC)c3o2)c1 [Example 62.14] | ~0.1

Same assay, conditions: test compound at 1 μM; first value quoted

Compound | % Axl tyrosine kinase inhibition at 1 μM concentration
Nc1ncc(-c2ccc(S(=O)(=O)NC3CC3)cc2)cc1-c1nc2ccccc2o1 [Example 2.30] | 96.1%
COCc1cccc(-c2cnc(N)c(-c3nc4ccccc4o3)n2)c1 [Example 20.17] | 98.8%
COCC1CC(Oc2ccc(-c3cnc(N)c(-c4nc5ncccc5o4)c3)cc2OC)CN1 (stereo not drawn) [Example 43C.36] | 99.8%
CNC(=O)c1nn(C2CCN(C)CC2)cc1-c1cnc(N)c(-c2nc3ccccc3o2)c1 [Example 41.33] | 99.6%
COc1cccc2oc(-c3cc(-c4cnn(C5CCNCC5)c4)cnc3N)nc12 [Example 38A.1] | 97.8%
Nc1ncc(-c2cnn(CCN3CCC3)c2)cc1-c1nc2ccccc2o1 [Example 31.10] | 94.3%
Nc1ncc(-c2ccc(N3CCNCC3)cc2)cc1-c1nc2ccccc2o1 [Example 2.14] | 99.9%
Nc1ncc(-c2ccc(C(=O)N3CCCCC3CN3CCCC3)cc2)cc1-c1nc2cccnc2o1 (stereo not drawn) [Example 45A.23] | 99.8%
CN(C)C1CCC(NC(=O)c2ccc(-c3cnc(N)c(-c4nc5cccnc5o4)c3)cc2)CC1 (stereo not drawn) [Example 45A.24] | 95.8%
Nc1ncc(-c2ccc(S(=O)(=O)NCCO)cc2)cc1-c1nc2cnccc2o1 [Example 8A.2] | 99.2%
Nc1ncc(-c2cccc(CN3CCCCC3)c2)cc1-c1nc2cccnc2o1 [Example 9A.9] | 95.3%
CN1CCN(c2cccc(-c3cnc(N)c(-c4nc5ccccc5o4)c3)c2)CC1 [Example 2.53] | 4.2**** %
Nc1ncc(-c2cnn(C3CCNCC3)c2)cc1-c1nc2ccc(F)c(F)c2o1 [Example 38.1] | 99.5%
COc1cc(-c2cnc(N)c(-c3nc4ncccc4o3)c2)ccc1OCCC1CCCCN1C (stereo not drawn) [Example 43C.13] | 99.9%
Nc1ncc(-c2cccc(C(=O)NC3CC3)c2)cc1-c1nc2ncccc2o1 [Example 10A.6] | 37.8%
Nc1ncc(-c2ccc(OCCOC3CCNCC3)cc2)cc1-c1nc2ncccc2o1 [Example 43B.37] | 97.6%

Compound | % Axl tyrosine kinase inhibition at 1 μM concentration
COc1nn(C2CCN(C)CC2)cc1-c1cnc(N)c(-c2nc3ccccc3o2)c1 [Example 41.14] | 100.0%
Nc1ncc(-c2cccc(-c3ccn[nH]3)c2)cc1-c1nc2cnccc2o1 [Example 8A.28] | 97.5%
Nc1ncc(-c2ccc(C(=O)N3CCCCC3CN3CCOCC3)cc2)cc1-c1nc2cccnc2o1 (stereo not drawn) [Example 45A.21] | 96.4%
NCc1cccc(-c2cnc(N)c(-c3nc4cnccc4o3)c2)c1 [Example 8A.27] | 98.6%
CN1CCN(C(=O)c2cccc(-c3cnc(N)c(-c4nc5cccnc5o4)c3)c2)CC1 [Example 9A.18] | 80.8%
CN(C)CCCOc1ccc(-c2cnc(N)c(-c3nc4ncccc4o3)c2)cc1 [Example 43B.10] | 98.4%
N#Cc1cccc(-c2cnc(N)c(-c3nc4cccnc4o3)c2)c1 [Example 9A.1] | 89.8%
CN1CCN(c2ccc(-c3cnc(N)c(-c4nc5ccccc5o4)n3)cn2)CC1 [Example 20.7] | 99.6%
Nc1ncc(-c2ccc(OCCN3CCCC3)cc2)cc1-c1nc2ncccc2o1 [Example 43B.1] | 99.8%
CCN(CC)CCNC(=O)c1cccc(-c2cnc(N)c(-c3nc4cccnc4o3)c2)c1 [Example 9A.7] | 91.7%
Nc1ncc(-c2ccc(OCC3CCNCC3)cc2)cc1-c1nc2ncccc2o1 [Example 43B.36] | 98.3%
Nc1ncc(-c2cccc(CN3CCCCC3)c2)cc1-c1nc2cnccc2o1 [Example 8A.20] | 95.2%
CN(C)CCNC(=O)c1cccc(-c2cnc(N)c(-c3nc4cnccc4o3)c2)c1 [Example 8A.24] | 95.6%
Nc1ncc(-c2ccc(OCCN3CCOCC3)cc2)cc1-c1nc2ncccc2o1 [Example 43B.6] | 96.4%
CN1CCCC(n2cc(-c3cnc(N)c(-c4nc5ccccc5o4)c3)cn2)C1 (stereo not drawn) [Example 41.2] | 99.3%
COc1cc(-c2cnc(N)c(-c3nc4ncccc4o3)c2)ccc1OCCCN1CC(C)NC(C)C1 (stereo not drawn) [Example 43C.34] | 99.1%

Now from value to molecule:

% Axl tyrosine kinase inhibition at 1 μM concentration | Compound
99.8% | CNCCN(C)C(=O)c1ccc(-c2cnc(N)c(-c3nc4cccnc4o3)c2)cc1 [Example 45A.85]
100.0% | COCc1nn(C2CCNCC2)cc1-c1cnc(N)c(-c2nc3cccc(OC)c3o2)c1 [Example 62.14]
99.0% | Nc1ncc(-c2ccc(C(=O)N3CCC(N)C3)cc2)cc1-c1nc2cccnc2o1 (stereo not drawn) [Example 45A.79]
98.6% | Nc1ncc(-c2ccc(C(=O)N3CCC(N4CCOCC4)CC3)cc2)cc1-c1nc2cccnc2o1 [Example 45A.64]
97.4% | CN1CC(NC(=O)c2ccc(-c3cnc(N)c(-c4nc5cccnc5o4)c3)cc2)C1 [Example 45A.30]
100.0% | COc1cccc2nc(-c3cc(-c4cn(C5CCNCC5)nc4CO)cnc3N)oc12 [Example 62.13]
98.1% | CN(C)CCN(C)C(=O)c1ccc(-c2cnc(N)c(-c3nc4ncccc4o3)c2)cc1 [Example 45B.1]
97.3% | Nc1ncc(-c2ccc(C(=O)N3CCN(Cc4ccncc4)CC3)cc2)cc1-c1nc2cccnc2o1 [Example 45A.62]
95.8% | Nc1ncc(-c2ccc(C(=O)N3CCC(C4CCNCC4)CC3)cc2)cc1-c1nc2cccnc2o1 [Example 45A.86]
98.3% | CN1CCCN(C(=O)c2ccc(-c3cnc(N)c(-c4nc5cccnc5o4)c3)cc2)CC1 [Example 45A.65]
96.3% | Nc1ncc(-c2ccc(C(=O)N3CCCC4(CCNCC4)C3)cc2)cc1-c1nc2cccnc2o1 [Example 45A.91]
98.3% | CN(C)CCN(C)C(=O)c1ccc(-c2cnc(N)c(-c3nc4cccnc4o3)c2)cc1 [Example 45A.48]
91.3% | Nc1ncc(-c2ccc(C(=O)N3CCN(CCN4CCCC4)CC3)cc2)cc1-c1nc2cccnc2o1 [Example 45A.68]
93.7% | CN(C)CCN1CCN(C(=O)c2ccc(-c3cnc(N)c(-c4nc5cccnc5o4)c3)cc2)CC1 [Example 45A.50]
99.8% | Nc1ncc(-c2ccc(C(=O)NCC3CCCCN3)cc2)cc1-c1nc2cccnc2o1 (stereo not drawn) [Example 45A.104]

Same assay, conditions: test compound at 1 μM; first value quoted; read-out: % Axl tyrosine kinase inhibition at 1 μM concentration

Compound | inhibition at 1 µM [%]
COc1ccc2oc(-c3cc(-c4cnn(C5CCN(C)CC5)c4)cnc3N)nc2c1 [Example 35A, 3-(5-methoxy-1,3-benzoxazol-2-yl)-5-[1-(1-methyl-4-piperidyl)pyrazol-4-yl]pyridin-2-amine] | 100
Nc1ncc(-c2cnn(C3CCNCC3)c2)cc1-c1nc2ncc(F)cc2o1 [Example 37, 3-(6-fluorooxazolo[4,5-b]pyridin-2-yl)-5-[1-(4-piperidyl)pyrazol-4-yl]pyridin-2-amine] | 98.4
Nc1ncc(-c2cnn(C3CCCCO3)c2)cc1-c1nc2ccccc2o1 (stereo not drawn) [Example 2.55, 3-(1,3-benzoxazol-2-yl)-5-(1-tetrahydropyran-2-ylpyrazol-4-yl)pyridin-2-amine] | 99.2
COCC(=O)N1CCC(n2cc(-c3cnc(N)c(-c4nc5ccccc5o4)c3)cn2)CC1 [Example 33, 1-[4-[4-[6-amino-5-(1,3-benzoxazol-2-yl)-3-pyridyl]pyrazol-1-yl]-1-piperidyl]-2-methoxy-ethanone] | 99.9

Next, values leading:

inhibition at 1 µM [%] | Compound
99.3 | COCC(=O)N1CCC(n2cc(-c3cnc(N)c(-c4nc5ncccc5o4)c3)cn2)CC1 [Example 56, 1-[4-[4-(6-amino-5-oxazolo[4,5-b]pyridin-2-yl-3-pyridyl)pyrazol-1-yl]-1-piperidyl]-2-methoxy-ethanone]
73.4 | Nc1ncc(-c2cccc(N3CCOCC3)c2)nc1-c1nc2ccccc2s1 [Example 49, 3-(1,3-Benzothiazol-2-yl)-5-(3-morpholinophenyl)pyrazin-2-amine]
100 | CN(C)C(=O)CN1CCC(n2cc(-c3cnc(N)c(-c4nc5ccccc5o4)c3)c(CO)n2)CC1 [Example 69, 2-[4-[4-[6-amino-5-(1,3-benzoxazol-2-yl)-3-pyridyl]-3-(hydroxymethyl)pyrazol-1-yl]-1-piperidyl]-N,N-dimethyl-acetamide]
100 | COCc1nn(C2CCN(C(=O)CN(C)C)CC2)cc1-c1cnc(N)c(-c2nc3ccccc3o2)c1 [Example 71, 1-[4-[4-[6-amino-5-(1,3-benzoxazol-2-yl)-3-pyridyl]-3-(methoxymethyl)pyrazol-1-yl]-1-piperidyl]-2-dimethylaminoethanone]

Same assay, conditions: test compound at 30 μM

Compound | % of Axl tyrosine kinase activity inhibited at a concentration of 30 μM
CN1CCN(c2cccc(-c3cnc(N)c(-c4nc5ccccc5o4)c3)c2)CC1 [Example 2.53] | ****the compound disclosed in Example 2.53 inhibited 82% of Axl tyrosine kinase activity at a concentration of 30 μM.
